ChEMBL document CHEMBL1201862, “PubChem BioAssay data set” (2004)
Activity calls are given as the source filed them. No stated cut-off is given here; in the data, actives have a measured IC50 and inactives only a lower limit.

Tests used:
Assay type in all cases: functional
Caspase-3 = target: T1, Caspase-3 (Homo sapiens, UniProt P42574);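 further: Dose-response selectivity test against caspase-3 for candidate inhibitors of sentrin-specific proteases (SENPs)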
T1 sequence (P42574 whole entry): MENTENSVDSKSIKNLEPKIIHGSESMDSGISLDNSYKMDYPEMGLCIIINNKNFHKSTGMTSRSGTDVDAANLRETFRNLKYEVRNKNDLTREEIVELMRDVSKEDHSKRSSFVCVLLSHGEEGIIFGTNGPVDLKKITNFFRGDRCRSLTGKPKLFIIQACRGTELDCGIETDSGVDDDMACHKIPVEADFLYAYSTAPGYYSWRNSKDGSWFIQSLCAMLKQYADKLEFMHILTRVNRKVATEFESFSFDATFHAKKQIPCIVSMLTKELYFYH

[1] = target: T2, Sentrin-specific protease 6 (Homo sapiens, UniProt Q9GZR1);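 further: Luminescence-based dose-response confirmatory assay of SENP6 inhibition, following up an ultra-high-throughput screen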
T2 sequence (Q9GZR1 whole entry): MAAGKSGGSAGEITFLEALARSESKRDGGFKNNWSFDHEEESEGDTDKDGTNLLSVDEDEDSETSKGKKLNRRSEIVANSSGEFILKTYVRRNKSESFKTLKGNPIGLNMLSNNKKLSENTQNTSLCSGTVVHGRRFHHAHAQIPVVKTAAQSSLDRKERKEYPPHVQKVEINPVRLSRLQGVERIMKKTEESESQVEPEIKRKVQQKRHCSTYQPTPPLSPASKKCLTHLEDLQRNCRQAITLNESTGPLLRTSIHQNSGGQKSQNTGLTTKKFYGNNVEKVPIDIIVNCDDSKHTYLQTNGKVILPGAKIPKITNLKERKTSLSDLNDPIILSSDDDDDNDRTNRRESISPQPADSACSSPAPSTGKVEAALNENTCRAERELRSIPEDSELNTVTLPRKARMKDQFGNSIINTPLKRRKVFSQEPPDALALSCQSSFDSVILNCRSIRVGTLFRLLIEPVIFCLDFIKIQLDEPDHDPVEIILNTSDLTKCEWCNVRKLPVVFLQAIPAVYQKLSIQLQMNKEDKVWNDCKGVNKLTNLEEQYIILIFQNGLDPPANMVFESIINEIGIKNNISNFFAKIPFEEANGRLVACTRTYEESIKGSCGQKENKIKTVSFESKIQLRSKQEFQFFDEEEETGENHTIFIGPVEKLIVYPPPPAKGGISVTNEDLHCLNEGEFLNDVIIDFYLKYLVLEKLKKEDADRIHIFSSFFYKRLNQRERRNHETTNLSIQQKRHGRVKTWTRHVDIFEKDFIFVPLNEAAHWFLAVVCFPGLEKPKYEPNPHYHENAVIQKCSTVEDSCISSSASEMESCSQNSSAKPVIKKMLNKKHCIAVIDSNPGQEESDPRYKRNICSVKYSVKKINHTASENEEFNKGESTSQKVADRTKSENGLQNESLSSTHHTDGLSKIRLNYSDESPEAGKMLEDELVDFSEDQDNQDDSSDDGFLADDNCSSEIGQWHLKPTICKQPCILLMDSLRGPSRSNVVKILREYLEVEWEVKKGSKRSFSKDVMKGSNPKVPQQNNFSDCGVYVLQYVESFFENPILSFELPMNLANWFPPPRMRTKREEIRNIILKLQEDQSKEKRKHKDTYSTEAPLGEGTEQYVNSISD

[2] = target: T3, Sentrin-specific protease 7 (Homo sapiens, UniProt Q9BQF6);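 further: Luminescence-based dose-response confirmation of ultra-high-throughput screening hits, measuring inhibition of SENP7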
T3 sequence (Q9BQF6 whole entry): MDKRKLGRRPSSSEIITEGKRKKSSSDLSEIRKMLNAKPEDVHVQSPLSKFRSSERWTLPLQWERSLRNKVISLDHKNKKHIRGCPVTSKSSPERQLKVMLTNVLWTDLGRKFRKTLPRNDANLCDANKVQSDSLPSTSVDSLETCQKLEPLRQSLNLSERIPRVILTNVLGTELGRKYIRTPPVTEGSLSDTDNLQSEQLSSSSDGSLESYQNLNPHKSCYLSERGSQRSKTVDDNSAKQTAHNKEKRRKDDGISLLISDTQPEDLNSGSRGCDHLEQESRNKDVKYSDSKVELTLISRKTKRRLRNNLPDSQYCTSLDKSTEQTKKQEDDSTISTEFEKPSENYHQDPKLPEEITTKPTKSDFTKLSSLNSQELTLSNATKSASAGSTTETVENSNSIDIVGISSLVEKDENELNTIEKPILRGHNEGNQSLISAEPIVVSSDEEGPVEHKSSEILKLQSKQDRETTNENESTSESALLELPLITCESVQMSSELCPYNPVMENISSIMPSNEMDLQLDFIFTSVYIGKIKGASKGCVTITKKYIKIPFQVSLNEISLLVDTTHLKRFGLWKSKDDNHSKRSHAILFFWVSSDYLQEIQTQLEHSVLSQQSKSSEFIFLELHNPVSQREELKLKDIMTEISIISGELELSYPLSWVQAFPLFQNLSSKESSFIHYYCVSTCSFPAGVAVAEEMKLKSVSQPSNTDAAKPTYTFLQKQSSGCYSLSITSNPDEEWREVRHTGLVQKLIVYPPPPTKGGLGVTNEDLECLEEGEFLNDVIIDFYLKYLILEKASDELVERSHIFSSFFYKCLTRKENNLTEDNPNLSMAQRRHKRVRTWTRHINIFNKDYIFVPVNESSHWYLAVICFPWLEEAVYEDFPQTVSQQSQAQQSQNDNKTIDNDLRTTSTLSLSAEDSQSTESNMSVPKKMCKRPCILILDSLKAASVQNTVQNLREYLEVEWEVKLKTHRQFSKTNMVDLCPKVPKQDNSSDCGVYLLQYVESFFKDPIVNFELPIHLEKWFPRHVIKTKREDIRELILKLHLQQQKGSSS

[3] = target: T4, Sentrin-specific protease 8 (Homo sapiens, UniProt Q96LD8);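 further: luminescence read-out of SENP8 inhibition, dose-response confirmation following an ultra-high-throughput screen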
T4 sequence (Q96LD8 whole entry): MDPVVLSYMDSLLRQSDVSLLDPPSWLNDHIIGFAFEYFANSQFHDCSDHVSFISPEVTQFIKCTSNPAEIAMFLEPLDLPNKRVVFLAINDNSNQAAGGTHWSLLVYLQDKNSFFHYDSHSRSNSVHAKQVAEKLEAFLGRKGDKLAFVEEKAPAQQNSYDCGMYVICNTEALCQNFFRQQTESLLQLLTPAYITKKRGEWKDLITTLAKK

Row | SMILES | IC50 (Caspase-3) | IC50 [1] | IC50 [2] | IC50 [3]
1 | O=C1c2ccccc2C(=O)C12OC2c1cccc2ccccc12 (configuration not stated) | 91.9 µM (active) | 2.37 µM (active) | 2.86 µM (active) | 4.53 µM (active)
2 | CCC(COC)Oc1cc(NCc2ccccc2)c2ncn(C(C)C)c2c1 (configuration not stated) | 6.47 µM (active) | 3.62 µM (active) | 5.61 µM (active) | 4.26 µM (active)
3 | O=c1[nH]c(N2CCOCC2)cc2ccccc12 | 1.59 µM (active) | < 1.55 µM (active) | 1.96 µM (active) | 2.12 µM (active)
